The text below walks through data of the Bradley open melting point set (2014).

What is called melting point is the temperature, or range, at which the solid turns liquid.

Molecules are shown by their SMILES. Where “and” joins values, the source holds several entries; their conditions need not be identical. Equal values may be shown once.

Regarding `CCOC(=O)C1=C(C)CC(C)=N1` [ethyl 3,5-dimethylpyrrole-2-carboxylate], the melting point was 126 °C.

Turning to `CCS(=O)(=O)c1ccc(B(O)O)cc1` [4-(ethylsulfonyl)benzeneboronic acid], the melting point was found to be 137 °C.

Turning to `O=Cc1cccc(Cl)c1` [m-chlorobenzaldehyde], the melting point amounted to 18 °C.

The molecule `Nc1ccc(S(=O)(=O)c2ccc(N)cc2)cc1` [4,4'-diaminodiphenyl sulfone] returned a melting point of 177 °C.

Consider `CCCOCCC` [di-n-propyl ether], for which the melting point is -122 °C.

Molecule `N=C(N)NC(N)=S` [N-amidinothiourea] registered a melting point of 164 °C.

In turn, `CC(=O)Nc1ccc(O)cc1` [paracetamol] registered a melting point of 169 °C.

The molecule `C=CS(=O)(=O)c1ccccc1` [phenyl vinyl sulfone] had a melting point of 69 °C.

On to `CN(C)c1ccc(N=O)cc1` [N,N-dimethyl-4-nitrosoaniline], for which the melting point was found to be 86 °C.

In the case of `CC(CO)(CO)CO` [1,1,1-tris(hydroxymethyl)ethane], the melting point was 190 °C.

For the molecule `Cn1c(/C(C#N)=C/c2ccc(F)cc2)nc2ccccc21`, the melting point is 134 °C.

Consider `O=C(N[C@H](Cc1ccccc1)C(=O)O)OCc1ccccc1` [N-benzyloxycarbonyl-D-phenylalanine], for which the melting point was 86 °C.

Take `C[Si](C)(C)Cl` [Chloro(trimethyl)silane]: the melting point is -58 °C.

With `Oc1cccc(I)c1` [m-iodophenol], the melting point worked out at 43 °C.

With `CC(=O)c1ccc(C)cc1` [p-methylacetophenone], the melting point was found to be 24 °C.

Molecule `Clc1cc(Cl)c(Cl)cc1Cl` [1,2,4,5-Tetrachlorobenzene] came in with a melting point of 139 °C.

In the case of `O=C(Cl)C(Cl)(Cl)Cl` [trichloroacetyl chloride], the melting point is -56.9 °C and -57 °C.

As to `C[C@]12CC[C@H]3[C@@H](CCC4=CC(=O)CC[C@@]43C)[C@@H]1CC[C@@H]2O` [testosterone], the melting point stood at 154 °C.

For the molecule `NC(=O)c1c(F)c(F)c(F)c(F)c1F` [2,3,4,5,6-pentafluorobenzamide], the melting point turned out to be 148 °C.

`CCCCc1ccccc1` [N-Butylbenzene]: the melting point is -87.9 °C.

With `Brc1cnc2ccccc2c1` [3-bromoquinoline], the melting point amounted to 14 °C.

With `COc1ccc(OC)c(B(O)O)c1` [2,5-dimethoxybenzeneboronic acid], the melting point came to 93 °C.

`CCOC(=O)/C(=N/Nc1ccc(Cl)cc1)C(=O)C(F)(F)F` gave a melting point of 76 °C.

Molecule `O=C(/C=C/c1ccc(-c2ccccc2)o1)c1ccco1` [(2E)-1-(2-furyl)-3-(5-phenyl-2-furyl)prop-2-en-1-one] had a melting point of 100 °C.

As for `COc1ccc(C=CC(=O)c2ccccc2)cc1` [Chalcone, 4-methoxy-], the melting point amounted to 76 °C.

The molecule `COC1=C(OC)/C(=C/C=O)OC1=O` [(2Z)-(3,4-dimethoxy-5-oxofuran-2(5H)-ylidene)ethanal] displayed a melting point of 61 °C.

Consider `Nc1cc(Cl)ccc1[N+](=O)[O-]` [5-chloro-2-nitroaniline], for which the melting point turned out to be 126 °C.

Molecule `CC(O)C1(O)CCC2C3CCC4(C)CC(O)CCC4(C)C3CCC21C` (centres undefined) [5-methylpregnane-3,17,20-triol] returned a melting point of 219 °C.

Consider `Nc1ccc2cc3ccccc3cc2c1` [2-aminoanthracene], for which the melting point was found to be 237 °C.

Consider `CCN(Cc1ccc(Cl)nc1)/C(=C/[N+](=O)[O-])NC`, for which the melting point turned out to be 72 °C.

Take `CCCC(C)(COC(N)=O)COC(=O)NC(C)C` (centres undefined) [carisoprodol]: the melting point was determined as 92 °C.

In turn, `N#CCc1ccccc1C(=O)O` [o-cyanomethyl_benzoic_acid] displayed a melting point of 115 °C.

With `CCOC(=O)/C=C(/C)N` [ethyl 3-aminocrotonate], the melting point is 32 °C.

`CCCCCCCCCCl` [1-chlorononane]: the melting point was -39 °C.

As for `O=C(O)Cc1cccc(Cl)c1` [3-chlorophenylacetic acid], the melting point amounted to 79 °C.

Consider `CCCCCCN` [1-hexylamine], for which the melting point is -19 °C.

`Oc1cc(O)c2ccccc2c1` [1,3-dihydroxynaphthalene] displayed a melting point of 125 °C.

The molecule `O=C(O)CCCCc1ccccc1` [5-phenylvaleric acid] returned a melting point of 59 °C.

Regarding `NS(=O)(=O)c1ccccc1Cl` [2-chlorobenzenesulfonamide], the melting point worked out at 190 °C.

For `Cc1ccc(C(C)(C)C)cc1` [1-methyl-4-tert-butylbenzene], the melting point was -53 °C.

As for `Cc1cc(=O)n(-c2ccccc2)n1C` [antipyrine], the melting point was determined as 113 °C.

`O=C(O)c1ccccc1O` [Salicylic acid]: the melting point was determined as 159 °C.

`Cc1ccc(S(=O)(=O)NC(=O)NN2CCCCCC2)cc1` [Tolazamide] returned a melting point of 172 °C.

Consider `COc1cc(C(=O)O)cc(O)c1OC` [5-hydroxy-3,4-dimethoxybenzoic acid], for which the melting point stood at 196 °C.

The molecule `O=C(O)c1cc([N+](=O)[O-])ccc1Br` [2-bromo-5-nitrobenzoic acid] displayed a melting point of 180 °C.

For the molecule `NC(=O)CS(=O)C(c1ccccc1)c1ccccc1` (centres undefined) [modafinil], the melting point turned out to be 164 °C.

In turn, `COc1ccc(C#N)c(Cl)c1OC` [2-chloro-3,4-dimethoxybenzonitrile] came in with a melting point of 102 °C.

For `CCOC(=O)c1ccccc1B(O)O` [2-(ethoxycarbonyl)benzeneboronic acid], the melting point was 132 °C.

The molecule `Sc1ccccn1` [Pyridine-2-thiol] yielded a melting point of 129 °C.

Regarding `N=C(N)NCCC[C@@H](N)C(=O)O` [D-arginine], the melting point was found to be 235 °C.

The molecule `CCCCC1C(=O)N(c2ccccc2)N(c2ccccc2)C1=O` [phenylbutazone] returned a melting point of 105 °C.

As to `CCOC(=O)c1ccccc1` [ethyl benzoate], the melting point is -34 °C.

`C=Cc1cccc(C)c1` [3-methylstyrene]: the melting point is -82 °C.

`OCC(F)(F)F` [2,2,2-Trifluoroethanol]: the melting point is -43.5 °C.

Turning to `O=[N+]([O-])c1ccc2c(c1)OCCOCCOCCOCCO2` [4-nitrobenzo-15-crown-5], the melting point worked out at 94 °C.

The molecule `Nc1cccc(Cl)c1C(=O)O` [2-amino-6-chlorobenzoic acid] returned a melting point of 151 °C.

On to `CC(C)c1ccc(Br)cc1` [p-bromocumene], for which the melting point was -22 °C.

With `COC(=O)CCCCCCCCC(=O)OC` [Dimethyl sebacate], the melting point came to 26.5 °C.

For `COc1ccccc1` [anisole], the melting point was -37 °C.

For `CCCCCCCCC(C)O` (centres undefined) [2-decanol], the melting point was -5 °C.

The molecule `OCC(F)(F)C(F)(F)CO` [2,2,3,3-tetrafluoro-1,4-butanediol] displayed a melting point of 84 °C.

`CCCCCCCCCCCCC=O` [tridecanal] registered a melting point of 15 °C.

On to `Cc1c2oc3c(C)ccc(C(=O)NC4C(=O)NC(C(C)C)C(=O)N5CCCC5C(=O)N(C)CC(=O)N(C)C(C(C)C)C(=O)OC4C)c3nc-2c(C(=O)NC2C(=O)NC(C(C)C)C(=O)N3CCCC3C(=O)N(C)CC(=O)N(C)C(C(C)C)C(=O)OC2C)c(N)c1=O` (centres undefined) [Dactinomycin], for which the melting point is 242 °C.

`Nc1c(Br)cc(Br)cc1C(=O)O` [2-amino-3,5-dibromobenzoic acid] returned a melting point of 233 °C.
